Source: the NIST ThermoML archive (doi:10.1021/acs.jced.8b00931)
± gives the expanded uncertainty stated by the source.

What was measured:
[1] = Crystal; DSC
[2] = Molar enthalpy of transition or fusion; settings: Crystal; DSC

Triple point temperature [1]: 393.39 ± 1.2 K
Molar enthalpy of transition or fusion [2]: 6.46 ± 0.232 kcal/mol
Structure (SMILES): Nc1cc([N+](=O)[O-])ccc1Cl [2-chloro-5-nitroaniline]
